These results are taken from ChEMBL document CHEMBL1134974, “Diaza- and triazachrysenes: potent topoisomerase-targeting agents with exceptional antitumor activity against the human tumor xenograft, MDA-MB-435” (Bioorg Med Chem Lett, 2002).

SMILES strings stand for the structures. A value given as a limit tells only on which side of the number the result lay.

In assay [1] the test system is RPMI 8402. The assay is described as follows: Cytotoxicity using camptothecin-resistant variant of RPM18402 (CPT-K5) possessing functional, but mutant TOP-1. In kind it is cell-based. The following applies: Homo sapiens.
The target of assay [2] is DNA topoisomerase II (Homo sapiens) (UniProt P11388+Q02880). The assay is described as follows: TOP-2 mediated DNA cleavage measured as effective concentration relative to VM26. In kind it is functional.
Assay [3] addresses T1, DNA topoisomerase 1 (Homo sapiens) (UniProt P11387).
T1 sequence (whole entry): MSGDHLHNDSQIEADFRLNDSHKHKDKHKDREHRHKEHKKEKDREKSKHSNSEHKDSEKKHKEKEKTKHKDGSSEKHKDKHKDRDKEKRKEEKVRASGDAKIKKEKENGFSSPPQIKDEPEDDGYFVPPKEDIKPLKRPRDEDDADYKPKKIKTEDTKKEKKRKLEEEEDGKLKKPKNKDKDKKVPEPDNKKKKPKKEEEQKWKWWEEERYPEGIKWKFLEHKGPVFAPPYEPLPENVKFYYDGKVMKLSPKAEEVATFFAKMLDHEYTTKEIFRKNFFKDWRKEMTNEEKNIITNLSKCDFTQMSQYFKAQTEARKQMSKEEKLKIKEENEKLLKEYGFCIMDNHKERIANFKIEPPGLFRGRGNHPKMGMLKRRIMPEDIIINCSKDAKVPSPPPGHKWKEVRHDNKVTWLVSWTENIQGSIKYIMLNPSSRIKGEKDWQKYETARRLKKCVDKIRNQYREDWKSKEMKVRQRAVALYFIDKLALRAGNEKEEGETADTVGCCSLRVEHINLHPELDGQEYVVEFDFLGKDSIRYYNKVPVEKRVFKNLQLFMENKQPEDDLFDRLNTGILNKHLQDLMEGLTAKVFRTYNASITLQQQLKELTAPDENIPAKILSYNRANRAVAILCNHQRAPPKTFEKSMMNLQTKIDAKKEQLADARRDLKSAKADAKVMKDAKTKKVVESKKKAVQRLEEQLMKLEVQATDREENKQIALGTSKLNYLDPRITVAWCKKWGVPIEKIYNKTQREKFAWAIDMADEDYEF
Nature of the assay: TOP-1 mediated DNA cleavage measured as effective concentration relative to topotecan = 1. In kind it is functional.

Assay [4] concerns RPMI 8402. Nature of the assay: Cytotoxicity against human lymphoblast tumor cell line RPM18402. In kind it is functional, cell-based.
Assay [5] relates to Mus musculus. The assay is described as follows: In vivo antitumor activity in NCR-nude-nude mice inoculated with 1.2 E6 -1.5 E6 MDA-MB-435 cells; after day 13 with an average dose of 13.88 mg/mouse (ip). Format: functional.
Assay [6] has as its system Mus musculus. Nature of the assay: In vivo antitumor activity in NCR-nude-nude mice inoculated with 1.2 E6 -1.5 E6 MDA-MB-435 cells; after day 21 with an average dose of 13.88 mg/mouse (ip). Format: functional.
The test system of assay [7] is Mus musculus. Nature of the assay: In vivo antitumor activity in NCR-nude-nude mice inoculated with 1.2 E6 -1.5 E6 MDA-MB-435 cells; after day 31 with an average dose of 13.88 mg/mouse (ip). Format: functional.
The test system of assay [8] is Mus musculus. Nature of the assay: In vivo antitumor activity in NCR-nude-nude mice inoculated with 1.2 E6 -1.5 E6 MDA-MB-435 cells; after day 7 with an average dose of 13.88 mg/mouse (ip). Format: functional.
Assay [9] concerns Mus musculus. The assay is described as follows: In vivo antitumor activity in NCR-nude-nude mice inoculated with 1.2 E6 -1.5 E6 MDA-MB-435 cells; after day 13 with an average dose of 0.22 mg/mouse (ip). In kind it is functional.
In assay [10] the test system is Mus musculus. Nature of the assay: In vivo antitumor activity in NCR-nude-nude mice inoculated with 1.2 E6 -1.5 E6 MDA-MB-435 cells; after day 13 with an average dose of 0.27 mg/mouse (po). In kind it is functional.
Assay [11] deals with Mus musculus. Nature of the assay: In vivo antitumor activity in NCR-nude-nude mice inoculated with 1.2 E6 -1.5 E6 MDA-MB-435 cells; after day 21 with an average dose of 0.22 mg/mouse (ip). In kind it is functional.
In assay [12] the test system is Mus musculus. The assay is described as follows: In vivo antitumor activity in NCR-nude-nude mice inoculated with 1.2 E6 -1.5 E6 MDA-MB-435 cells; after day 31 with an average dose of 0.22 mg/mouse (ip). In kind it is functional.
Assay [13] relates to Mus musculus. Nature of the assay: In vivo antitumor activity in NCR-nude-nude mice inoculated with 1.2 E6 -1.5 E6 MDA-MB-435 cells; after day 31 with an average dose of 0.27 mg/mouse (po). In kind it is functional.
In assay [14] the test system is Mus musculus. Nature of the assay: In vivo antitumor activity in NCR-nude-nude mice inoculated with 1.2 E6 -1.5 E6 MDA-MB-435 cells; after day 7 with an average dose of 0.22 mg/mouse (ip). Format: functional.
Assay [15] relates to Mus musculus. The assay is described as follows: In vivo antitumor activity in NCR-nude-nude mice inoculated with 1.2 E6 -1.5 E6 MDA-MB-435 cells; after day 7 with an average dose of 0.27 mg/mouse (po). In kind it is functional.
Assay [16] relates to Mus musculus. Nature of the assay: In vivo antitumor activity in NCR-nude-nude mice inoculated with 1.2 E6 -1.5 E6 MDA-MB-435 cells; after day 21 with an average dose of 0.27 mg/mouse (po). Format: functional.
The test system of assay [17] is Mus musculus. The assay is described as follows: In vivo antitumor activity in NCR-nude-nude mice inoculated with 1.2 E6 -1.5 E6 MDA-MB-435 cells after day 13 with an average dose of 0.73 mg/mouse (ip). Format: functional.
Assay [18] has as its system Mus musculus. Nature of the assay: In vivo antitumor activity in NCR-nude-nude mice inoculated with 1.2 E6 -1.5 E6 MDA-MB-435 cells after day 13 with an average dose of 0.78 mg/mouse (po). In kind it is functional.
Assay [19] has as its system Mus musculus. The assay is described as follows: In vivo antitumor activity in NCR-nude-nude mice inoculated with 1.2 E6 -1.5 E6 MDA-MB-435 cells after day 21 with an average dose of 0.73 mg/mouse (ip). In kind it is functional.
In assay [20] the test system is Mus musculus. The assay is described as follows: In vivo antitumor activity in NCR-nude-nude mice inoculated with 1.2 E6 -1.5 E6 MDA-MB-435 cells after day 21 with an average dose of 0.78 mg/mouse(po). In kind it is functional.
Assay [21] deals with Mus musculus. The assay is described as follows: In vivo antitumor activity in NCR-nude-nude mice inoculated with 1.2 E6 -1.5 E6 MDA-MB-435 cells after day 31 with an average dose of 0.73 mg/mouse (ip). In kind it is functional.
Assay [22] relates to Mus musculus. The assay is described as follows: In vivo antitumor activity in NCR-nude-nude mice inoculated with 1.2 E6 -1.5 E6 MDA-MB-435 cells after day 31 with an average dose of 0.78 mg/mouse (po). In kind it is functional.
Assay [23] has as its system Mus musculus. The assay is described as follows: In vivo antitumor activity in NCR-nude-nude mice inoculated with 1.2 E6 -1.5 E6 MDA-MB-435 cells after day 7 with an average dose of 0.73 mg/mouse (ip). Format: functional.
For assay [24], the system named is Mus musculus. Nature of the assay: In vivo antitumor activity in NCR-nude-nude mice inoculated with 1.2 E6 -1.5 E6 MDA-MB-435 cells after day 7 with an average dose of 0.78 mg/mouse (po). In kind it is functional.

In general, IC50 refers to the concentration that inhibits the measured activity by half. High values mean lower potency, low ones higher potency. Take `COc1cc2c(=O)n(C(C)CN(C)C)c3c4cc5c(cc4nnc3c2cc1OC)OCO5` (configuration not stated): the IC50 is 3.6 µM in the assay on RPMI 8402 [1] and 0.26 µM in the assay with RPMI 8402 [4]. In addition, the REC in [2] was greater than 100; in assay [3], 1000.

For `CCc1c2c(nc3ccc(OC(=O)N4CCC(N5CCCCC5)CC4)cc13)-c1cc3c(c(=O)n1C2)CCC(=O)C3(O)CC` (configuration not stated), the IC50 in the assay on RPMI 8402 [1] was greater than 10 µM. The molecule further displayed an REC in assay [2] greater than 100. Further, the Average tumor volume in the assay with Mus musculus [5] was determined as 116 mm**3; with Mus musculus [6], 36 mm**3; with Mus musculus [7], 11 mm**3; in the assay with Mus musculus [8], 118 mm**3.

Turning to `COc1cc2c(=O)n(CC3CCCO3)c3c4cc5c(cc4nnc3c2cc1OC)OCO5` (configuration not stated), the IC50 with RPMI 8402 [1] is greater than 10 µM; in the assay with RPMI 8402 [4] it was 0.01 µM. The values for the REC in [2] and in [3] were greater than 100 and 30, respectively.

For `COc1cc2c(=O)n(C(C)CN(C)C)c3c4cc5c(cc4ncc3c2cc1OC)OCO5` (configuration not stated), the figures for the IC50 with RPMI 8402 [1] and with RPMI 8402 [4] were 3.4 µM and 0.57 µM, respectively. Besides, the REC in [2] was greater than 100; in assay [3], greater than 1000.

`COc1cc2c(=O)n(CCN(C)C)c3c4cc5c(cc4nnc3c2cc1OC)OCO5`: the IC50 worked out at 0.6 µM in the assay on RPMI 8402 [1] and 0.001 µM in the assay on RPMI 8402 [4]. The REC in [2] is greater than 100; in [3] it was 0.3. The Average tumor volume turned out to be 211 mm**3 in the assay on Mus musculus [9]; 183 mm**3 in the assay on Mus musculus [10]; 252 mm**3 in the assay on Mus musculus [11]; 403 mm**3 with Mus musculus [12]; 200 mm**3 in the assay with Mus musculus [13]; 167 mm**3 with Mus musculus [14]. The Average tumor volume is recorded as 154 mm**3 with Mus musculus [15] and 207 mm**3 with Mus musculus [16].

As to `CCCCn1c(=O)c2cc(OC)c(OC)cc2c2nnc3cc4c(cc3c21)OCO4`, the values for the IC50 with RPMI 8402 [1] and in the assay on RPMI 8402 [4] were 10 µM and 0.004 µM, respectively. For the same molecule, the REC is greater than 100 in assay [2] and 1 in assay [3].

As for `COc1cc2c(=O)n(CC3CCCO3)c3c4cc5c(cc4ncc3c2cc1OC)OCO5` (configuration not stated), the results for the IC50 in the assay with RPMI 8402 [1] and in the assay on RPMI 8402 [4] were greater than 10 µM and 0.15 µM, respectively. Besides, the REC in assay [2] is greater than 100; in assay [3], 200.

As for `COc1cc([C@@H]2c3cc4c(cc3[C@@H](O[C@@H]3O[C@@H]5CO[C@@H](c6cccs6)O[C@H]5[C@H](O)[C@H]3O)[C@H]3COC(=O)[C@H]23)OCO4)cc(OC)c1O` [TENIPOSIDE], the IC50 with RPMI 8402 [1] was determined as 0.28 µM; in the assay with RPMI 8402 [4], 0.22 µM. Besides, the REC in assay [2] was greater than 100; in assay [3], greater than 1000.

As for `COc1cc2c(=O)n(CCN(C)C)c3c4cc5c(cc4ncc3c2cc1OC)OCO5`, the IC50 with RPMI 8402 [1] was determined as 0.9 µM; in the assay with RPMI 8402 [4], 0.002 µM. Moreover, in [2], the REC was greater than 100. Also, the Average tumor volume in the assay on Mus musculus [17] came out at 84 mm**3; in the assay on Mus musculus [18], 148 mm**3; in the assay on Mus musculus [19], 65 mm**3; in the assay on Mus musculus [20], 99 mm**3; with Mus musculus [21], 40 mm**3; with Mus musculus [22], 62 mm**3. The Average tumor volume was 123 mm**3 with Mus musculus [23] and 159 mm**3 with Mus musculus [24].

Regarding `CC[C@@]1(O)C(=O)OCc2c1cc1n(c2=O)Cc2cc3c(CN(C)C)c(O)ccc3nc2-1` [TOPOTECAN], the IC50 in the assay on RPMI 8402 [1] is greater than 10 µM; in the assay on RPMI 8402 [4] it was 0.012 µM. For the same molecule, the figures for the REC in assay [2] and in [3] were greater than 100 and 1, respectively.
